# Experimental data published in BindingDB's records for doi:10.1021/jm0002782 (Abbott Laboratories, 2000).
# pIC50: −log10 of the molar value.
# Assay: Evaluated for its ability to block the adherence of JY-8 cells to immobilized ICAM-1.
row,pIC50,SMILES
1,6.15,"O=C(/C=C/c1ccc(Sc2ccc(Cl)cc2Cl)c(Cl)c1)NCCCN1CCCC1=O [3-[3-Chloro-4-(2,4-dichloro-phenylsulfanyl)-phenyl]-N-[3-(2-oxo-pyrrolidin-1-yl)-propyl]-acrylamide]"

# Assay: as above
# Remark: another data set of the same source
row,SMILES,pIC50
1,"O=C(/C=C/c1ccccc1Sc1ccc(Cl)cc1Cl)N1CCOCC1 [3-[2-(2,4-Dichloro-phenylsulfanyl)-phenyl]-1-morpholin-4-yl-propenone]",5.28
2,"O=C(/C=C/c1ccc(Sc2ccc(Cl)cc2Cl)c([N+](=O)[O-])c1)NCCCN1CCCC1=O [3-[4-(2,4-Dichloro-phenylsulfanyl)-3-nitro-phenyl]-N-[3-(2-oxo-pyrrolidin-1-yl)-propyl]-acrylamide]",6.85
3,O=C(/C=C/c1ccc(Sc2ccccc2/C=C/C(=O)N2CCOCC2)c(Cl)c1)N1CCOCC1 [3-{3-Chloro-4-[2-(3-morpholin-4-yl-3-oxo-propenyl)-phenylsulfanyl]-phenyl}-1-morpholin-4-yl-propenone],6.72
4,"O=C(/C=C/c1ccc(Sc2ccccc2CN2CCN(Cc3ccc4c(c3)OCO4)CC2)c(Cl)c1)N1CCOCC1 [3-{4-[2-(4-Benzo[1,3]dioxol-5-ylmethyl-piperazin-1-ylmethyl)-phenylsulfanyl]-3-chloro-phenyl}-1-morpholin-4-yl-propenone]",6.44

# Continued, values first:
row,pIC50,SMILES
1,6.62,"CC(=O)N1CCN(C(=O)/C=C/c2ccc(Sc3ccc(Cl)cc3Cl)c(Cl)c2)CC1 [1-(4-Acetyl-piperazin-1-yl)-3-[3-chloro-4-(2,4-dichloro-phenylsulfanyl)-phenyl]-propenone]"
2,7.20,"CC(=O)N1CCN(C(=O)/C=C/c2ccc(Sc3ccc(Cl)cc3Cl)c([N+](=O)[O-])c2)CC1 [1-(4-Acetyl-piperazin-1-yl)-3-[4-(2,4-dichloro-phenylsulfanyl)-3-nitro-phenyl]-propenone]"
3,7.00,CCc1ccccc1Sc1ccc(/C=C/C(=O)N2CCN(C(C)=O)CC2)cc1[N+](=O)[O-] [1-(4-Acetyl-piperazin-1-yl)-3-[4-(2-ethyl-phenylsulfanyl)-3-nitro-phenyl]-propenone]
4,5.68,"O=C(/C=C/c1ccccc1Sc1ccc(Cl)cc1Cl)NCCCCCCO [3-[2-(2,4-Dichloro-phenylsulfanyl)-phenyl]-N-(6-hydroxy-hexyl)-acrylamide]"
